Literature values as cited in PMC4567415 (Nuclear medicine and biology, 2015).
“And” between values parts separate entries of the source, which are not always exact repeats. Identical values can stand only once. Like-named read-outs stand apart in the source and are kept apart here. Each block holds one compound with its values, some of them ahead of it.

Key:
[1] = previously described rhodamine B ester
[2] = rats, 60 min
[3] = test system: isolated rat cardiomyocytes
[4] = previously observed
[5] = test system: Pgp
[6] = Sprague-Dawley rats, 60 min p.i.

- heart uptake (Sprague-Dawley rats, 30 min): 1.51±0.04 % ID/g
- liver concentration (Sprague-Dawley rats, 30 min p.i.): 0.18±0.05 % ID/g
- heart uptake [6]: 1.57±0.18 % ID/g
- liver concentration [6]: 0.17±0.03 % ID/g
Compound: Fc1ccc([P+](c2ccccc2)(c2ccccc2)c2ccccc2)cc1 [BFPET]

- heart-to-blood ratio (30 min p.i.): 30.0
- heart-to-liver ratio (30 min p.i.): 2.7
- liver concentration (30 min p.i.): 1.27±0.10 % ID/g
- heart-to-liver ratio (120 min p.i.): 5.4
- liver concentration (120 min p.i.): 0.63±0.16 % ID/g
- heart concentration [6]: 3.3±0.3 % ID/g
- heart-to-liver ratio [6]: 3.7
- heart concentration (Wistar rats, 60 min p.i.): 2.06±0.83 % ID/g
- heart-to-liver ratio (Wistar rats, 60 min p.i.): 5.4
Compound: CC(C)(C)n1ncc(OCc2ccc(COCCF)cc2)c(Cl)c1=O [BMS-747158-02]

Compound: CCN(CC)c1ccc2c(-c3ccccc3C(=O)OCCOCC[18F])c3ccc(N(CC)CC)cc3[o+]c2c1 [[^18F]2]
- LogD [1]: 1.90 ± 0.01
- Biodistribution of radioactivity, Blood [2]: 0.25 ± 0.02 % ID/g
- Biodistribution of radioactivity, Bone [2]: 0.77 ± 0.04 % ID/g
- Biodistribution of radioactivity, Gut [2]: 1.69 ± 0.42 % ID/g
- Biodistribution of radioactivity, Heart [2]: 2.5 % ID/g and 2.51 ± 0.16 % ID/g
- Biodistribution of radioactivity, Kidney [2]: 9.28 ± 0.66 % ID/g
- Biodistribution of radioactivity, Liver [2]: 0.49 ± 0.04 % ID/g
- Biodistribution of radioactivity, Lung [2]: 2.06 ± 0.16 % ID/g
- Biodistribution of radioactivity, Muscle [2]: 0.54 ± 0.07 % ID/g
- Biodistribution of radioactivity, Skin [2]: 0.36 ± 0.04 % ID/g
- Biodistribution of radioactivity, Spleen [2]: 3.53 ± 0.57 % ID/g
- Heart/blood tissue ratio [2]: 10.0
- Heart/bone tissue ratio [2]: 3.3
- Heart/liver tissue ratio [2]: 5.1
- Heart/lung tissue ratio [2]: 1.2
- initial activity internalized into rat cardiomyocytes ([3]; 1 min incubation): 3.9±0.8%
- initial activity internalized into rat cardiomyocytes ([3]; 60 min incubation): 43.1±7.7%
- stability in mouse serum [4]: instability

Compound: CC/N=c1\cc2oc3cc(NCC)c(C)cc3c(-c3ccccc3C(=O)OCC)c-2cc1C [rhodamine 6G]
- substrate of Pgp [5]: substrate of Pgp
